From US20240207300A1, “COMBINATION THERAPIES INCLUDING MYT1 INHIBITORS” (Repare Therapeutics Inc., priority 2021, published 2024) come the findings set out here.

SMILES strings stand for the structures. pIC50: −log10 of the molar value.

The target of the test is recombinant human Myt1 (Homo sapiens (Human), UniProt Q99640). The test can be described thus: Recombinant human Myt1 kinase ADP-Glo enzymatic assay. The following applies: recombinant human Myt1 18 nM, ATP 10 μM. In kind it is biochemical. The procedure: Detection of Myt1 kinase activity utilized a recombinant human Myt1 kinase assay measuring the hydrolysis of ATP using a commercially available ADP-Glo Assay (ADP-Glo™ Kinase Assay from Promega, 10 000 assays, #V9102). […] After this, 5 μL of compounds (diluted in reaction buffer to 0.5% DMSO) was added to the microplate and the plate was spun briefly and incubated at 22° C. for 15 minutes. Ultra-Pure Adenosine Triphosphate (ATP) solution (ADP-Glo kit from Promega) was diluted in reaction buffer and 5 μL was added to the microplate, spun down briefly and incubated for 60 minutes at 30° C. […] After the 60-minute incubation, 15 μL of ADP-Glo reagent was added and the plate was spun briefly and sealed and incubated in the dark for 40 minutes at 22° C. […] Luminescence was read using the Envision (250 ms integration). The IC50 and the % max inhibition were calculated for each inhibitor compound tested.
Sequence of recombinant human Myt1 (Q99640 whole entry): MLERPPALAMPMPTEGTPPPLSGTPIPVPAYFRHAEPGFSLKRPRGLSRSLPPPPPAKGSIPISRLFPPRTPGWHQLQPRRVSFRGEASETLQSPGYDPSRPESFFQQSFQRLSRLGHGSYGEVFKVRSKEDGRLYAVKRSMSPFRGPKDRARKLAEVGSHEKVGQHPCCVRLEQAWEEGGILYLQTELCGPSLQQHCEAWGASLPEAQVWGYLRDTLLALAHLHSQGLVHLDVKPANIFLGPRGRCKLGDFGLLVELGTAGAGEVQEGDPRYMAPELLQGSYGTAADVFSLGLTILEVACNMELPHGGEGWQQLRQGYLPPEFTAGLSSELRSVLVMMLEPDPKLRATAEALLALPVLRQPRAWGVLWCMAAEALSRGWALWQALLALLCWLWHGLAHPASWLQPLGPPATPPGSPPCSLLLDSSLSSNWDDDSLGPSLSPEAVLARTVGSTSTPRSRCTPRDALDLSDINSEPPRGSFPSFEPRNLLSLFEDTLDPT
As to `Cc1ccc(O)c(C)c1-n1c(N)c(C(N)=O)c2nc(-c3cn(C)cn3)cnc21` [Compound 76], the pIC50 is above 8.00.
Next, `Cc1ccc(O)c(C)c1-n1c(N)c(C(N)=O)c2nc(C3=CCCCC3)cnc21` [Compound 86]: above 8.00.
Under `Cc1ccc(O)c(C)c1-n1c(N)c(C(N)=O)c2nc(-c3nc4ccccc4s3)cnc21` [Compound 248] stands above 8.00.
Next, `Cc1ccc(-c2cnc3c(n2)c(C(N)=O)c(N)n3-c2c(C)ccc(O)c2C)nc1` [Compound 61]: above 8.00; `Cc1ccc(O)c(C)c1-n1c(N)c(C(N)=O)c2cc(N3CCCC3=O)cnc21` [Compound 298]: above 8.00; `Cc1ccc(O)c(C)c1-n1c(N)c(C(N)=O)c2cc(C(C)C)cnc21` [Compound 138]: above 8.00.
With `Cc1ccc(O)c(C)c1-n1c(N)c(C(N)=O)c2ncc(C#CCC3CCOCC3)nc21` [Compound 222], the pIC50 is above 8.00.
Under `Cc1ccc(O)c(C)c1-n1c(N)c(C(N)=O)c2nc(C3=CCC(C(=O)N(C)C)CC3)cnc21` (stereo not drawn) [Compound 58] stands above 8.00.
Under `Cc1ccc(O)c(C)c1-n1c(N)c(S(C)(=O)=O)c2nc(-c3cnccn3)cnc21` [Compound 278] stands below 5.30.
Next, `Cc1ccc(O)c(C)c1-n1c(N)c(C(N)=O)c2nc(-c3ccnnc3)cnc21` [Compound 250]: above 8.00; `C=Cc1cnc2c(n1)c(C(N)=O)c(N)n2-c1c(C)ccc(O)c1C` [Compound 259]: above 8.00; `Cc1ccc(O)c(C)c1-n1c(N)c(C(N)=O)c2nc(N3CCCCC3)cnc21` [Compound 81]: above 8.00.
For `Cc1ccc(O)c(C)c1-n1c(N)c(C(N)=O)c2nc(-c3ccc(F)cn3)cnc21` [Compound 64], the pIC50 was above 8.00.
Under `Cc1ccc(O)c(C)c1-n1c(N)c(C(N)=O)c2ncc(C#CC(C)O)nc21` (stereo not drawn) [Compound 241] stands 7.62; under `Cc1ccc(O)c(C)c1-n1c(N)c(C(N)=O)c2nc3c(nc21)CCCC3` [Compound 262], above 8.00; under `Cc1ccc(O)c(C)c1-n1c(N)c(C(N)=O)c2nc(-c3ccns3)cnc21` [Compound 41], above 8.00.
Under `Cc1ccc(O)c(C)c1-n1c(N)c(C(N)=O)c2cc(Br)c(C)nc21` (single isomer, unassigned) [Compound 189] stands 6.00; under `CNC(=O)C1CCN(c2cnc3c(n2)c(C(N)=O)c(N)n3-c2c(C)ccc(O)c2C)CC1` [Compound 46, 6-amino-5-(3-hydroxy-2,6-dimethyl-phenyl)-2-[4-(methylcarbamoyl)-1-piperidyl]pyrrolo[2,3-b]pyrazine-7-carboxamide], above 8.00; under `Cc1c(O)ccc(Cl)c1-n1c(N)c(C(N)=O)c2nc(-c3nccs3)cnc21` [Compound 42], above 8.00.
Next, `Cc1ccc(O)c(C)c1-n1c(N)c(C(N)=O)c2nc(C3CCC3)cnc21` [Compound 173, 6-amino-2-cyclobutyl-5-(3-hydroxy-2,6-dimethyl-phenyl)pyrrolo[2,3-b]pyrazine-7-carboxamide]: above 8.00; `Cc1nc2c(C(N)=O)c(N)n(-c3c(Cl)ccc(O)c3C)c2nc1C` [Compound 168]: above 8.00; `COCCOCC#Cc1cnc2c(n1)c(-c1c(C)ccc(O)c1C)c(N)n2C(N)=O` [Compound 240]: 6.72.
With `Cc1ccc(O)c(C)c1-n1c(N)c(C(N)=O)c2cc(Br)cnc21` [Compound 141], the pIC50 is above 8.00.
Under `Cc1ccc(O)c(C)c1-n1c(N)c(C(N)=O)c2nc(-c3nccs3)c(C)nc21` [Compound 31, 6-amino-5-(3-hydroxy-2,6-dimethyl-phenyl)-3-methyl-2-thiazol-2-yl-pyrrolo[2,3-b]pyrazine-7-carboxamide] stands above 8.00; under `Cc1ccc(O)c(C)c1-n1c(N)c(C(N)=O)c2ncc(C#CC3OCCC3Cl)nc21` (stereo not drawn) [Compound 233], 8.00; under `CCN(CC)c1cnc2c(n1)c(C(N)=O)c(N)n2-c1c(C)ccc(O)c1C` [Compound 88], above 8.00.
Next, `Cc1ccc(O)c(C)c1-n1c(N)c(C(N)=O)c2ncc(C#CC3(O)CCOCC3)nc21` [Compound 231]: above 8.00; `CC(=O)N1CCN(c2cnc3c(n2)c(C(N)=O)c(N)n3-c2c(C)ccc(O)c2C)CC1` [Compound 87]: above 8.00.
Take `Cc1ccc(O)cc1-n1c(N)c(C(N)=O)c2nc(C3=CCCN(C(=O)OC(C)(C)C)C3)ccc21` [Compound 26]: the pIC50 was 5.70.
Under `Cc1ccc(O)c(C)c1-n1c(N)c(C(N)=O)c2cc(-c3nccs3)cnc21` [Compound 308] stands above 8.00.
Under `Cc1ccc(O)c(C)c1-n1c(N)c(C(N)=O)c2cc(I)cnc21` [Compound 319] stands above 8.00; under `Cc1ccc(O)c(C)c1-n1c(N)c(C(N)=O)c2cc(-c3ccccn3)cnc21` [Compound 295], above 8.00.
Next, `Cc1ccc(O)c(C)c1-n1c(N)c(C(N)=O)c2cc(C#N)cnc21` [Compound 312]: above 8.00.
Turning to `Cc1ccc(O)c(C)c1-n1c(N)c(C(N)=O)c2nc(-c3ccnc(C(F)(F)F)c3)cnc21` [Compound 35, 6-amino-5-(3-hydroxy-2,6-dimethyl-phenyl)-2-[2-(trifluoromethyl)-4-pyridyl]pyrrolo[2,3-b]pyrazine-7-carboxamide], the pIC50 is above 8.00.
Next, `Cc1ccc(O)c(Cl)c1-n1c(N)c(C(N)=O)c2cc(Cl)cnc21` [Compound 327]: above 8.00; `Cc1ccc(O)c(Cl)c1-n1c(N)c(C(N)=O)c2nc(C3CC3)cnc21` [Compound 104]: above 8.00; `Cc1ccc(O)c(C)c1-n1c(N)c(C(N)=O)c2c(C)c(Cl)cnc21` [Compound 313]: above 8.00.
Under `Cc1ccc(O)c(C)c1-n1c(N)c(C(N)=O)c2nc(N3CCC(C(=O)N(C)C)CC3)cnc21` [Compound 80] stands above 8.00; under `Cc1ccc(O)c(C)c1-n1c(N)c(C(N)=O)c2nc(C3CCCCC3)cnc21` [Compound 83], above 8.00; under `Cc1ccc(O)c(C)c1-n1c(N)c(C(N)=O)c2cc(C3=CCOCC3)cnc21` [Compound 304], above 8.00.
As for `Cc1ccc(O)c(C)c1-n1c(N)c(C(N)=O)c2nc(-c3cnccn3)cnc21` [Compound 38], the pIC50 is above 8.00.
Under `Cc1ccc(O)c(C)c1-n1cc(C(N)=O)c2cc(C3CC3)cnc21` [Compound 143] stands above 8.00; under `C=C(C)c1cnc2c(n1)c(C(N)=O)c(N)n2-c1c(C)ccc(O)c1C` [Compound 202], above 8.00.
Next, `Cc1ccc(O)c(C)c1-n1c(N)c(C(N)=O)c2cc(C(C)(C)O)cnc21` [Compound 131]: above 8.00.
Under `Cc1ccc(O)c(C)c1-n1c(N)c(C(N)=O)c2c(Cl)c(Cl)cnc21` [Compound 316] stands above 8.00; under `Cc1ccc(O)c(C)c1-n1c(N)c(C(N)=O)c2nc(N3CC4CCC(C3)O4)cnc21` [Compound 92], above 8.00; under `Cc1ccc(O)c(C)c1-n1c(N)c(C(N)=O)c2nc(C(N)=O)cnc21` [Compound 220, 6-amino-5-(3-hydroxy-2,6-dimethyl-phenyl)pyrrolo[2,3-b]pyrazine-2,7-dicarboxamide], above 8.00.
Regarding `Cc1ccc(O)c(C)c1-n1c(N)c(C(N)=O)c2nc(C(C)(C)F)cnc21` [Compound 178, 6-amino-2-(1-fluoro-1-methyl-ethyl)-5-(3-hydroxy-2,6-dimethyl-phenyl)pyrrolo[2,3-b]pyrazine-7-carboxamide], the negative-log IC50 (pIC50) was above 8.00.
Next, `Cc1ccc(O)c(C)c1-n1c(N)c(C(N)=O)c2nc(C3CC3)c(C)nc21` [Compound 100]: above 8.00; `Cc1ccc(O)c(C)c1-n1c(N)c(C(N)=O)c2ncc(C#CC3(O)CCC(F)(F)CC3)nc21` [Compound 242, 6-amino-3-[2-(4,4-difluoro-1-hydroxy-cyclohexyl)ethynyl]-5-(3-hydroxy-2,6-dimethyl-phenyl)pyrrolo[2,3-b]pyrazine-7-carboxamide]: above 8.00.
Next, `Cc1ccc(O)c(C)c1-n1c(N)c(C(N)=O)c2cc(Br)c(C)nc21` (single isomer, unassigned) [Compound 188]: above 8.00; `Cc1ccc(O)c(C)c1-n1c(N)c(C(N)=O)c2nc(C3(C(F)(F)F)CC3)cnc21` [Compound 198, 6-amino-5-(3-hydroxy-2,6-dimethyl-phenyl)-2-[1-(trifluoromethyl)cyclopropyl]pyrrolo[2,3-b]pyrazine-7-carboxamide]: above 8.00; `Cc1ccc(O)c(C)c1-n1c(N)c(C(N)=O)c2ncc(C#CC3OCCC3O)nc21` (stereo not drawn) [Compound 234]: 7.85.
Next, `Cc1ccc(O)c(Br)c1-n1c(N)c(C(N)=O)c2cc(Cl)cnc21` [Compound 289]: above 8.00; `Cc1ccc2c(C(N)=O)c(N)n(-c3c(C)ccc(O)c3C)c2n1` [Compound 193]: above 8.00.
As for `Cc1ccc(O)c(C)c1-n1c(N)c(C(N)=O)c2nc(N3CCCC3)cnc21` [Compound 85], the pIC50 was above 8.00.
Under `Cc1ccc(O)c(C)c1-n1c(N)c(C(N)=O)c2nc(-c3ccccn3)cnc21` [Compound 34] stands above 8.00; under `Cc1ccc(O)c(C)c1-n1c(N)c(C(N)=O)c2nc(-c3ccncn3)cnc21` [Compound 57], above 8.00; under `Cc1ccc(O)c(C)c1-n1c(N)c(C(N)=O)c2ncc(C#CC(C)O)nc21` (stereo not drawn) [Compound 229], 7.28.
Under `Cc1ccc(O)c(C)c1-n1c(N)c(C(N)=O)c2nc(-c3nc(C)c(C)s3)cnc21` [Compound 32] stands above 8.00.
